From patent publication US9493430B2, “Biaryl- or heterocyclic biaryl-substituted cyclohexene derivative compounds as CETP inhibitors” (CHONG KUN DANG PHARMACEUTICAL CORP., priority 2013, dated 2016) come the findings set out here.

pIC50: −log10 of the molar value.

The subject of assay [1] is golden Syrian hamsters. Briefly: Test for anti-hyperlipidemic effect in hamsters (in vivo). The settings on record: Mesocricetus auratus, po, 3 mg/kg orally for 5 days, blood 4 hours after final administration, vs control; for inhibition in vivo at 3 mg/kg: read-out: Decrease in LDL-c (%); for change in vivo at 3 mg/kg: read-out: Increase in HDL-c (%). From the text:
Test for Anti-Hyperlipidemic Effect in Hamsters (In Vivo)
In this test, 8-week-old male golden Syrian hamsters were used. The breeding room was maintained at constant temperature and constant humidity and a 12-hr light/12-hr dark cycle. The animals were allowed access to feed and water ad libitum.
2. Anti-Hyperlipidemic Test in Hamsters
The test animals were acclimated for 1 week before use in the test. The test animals were divided according to body weight into several groups, each consisting of 5-8 animals, and were then administered orally with a dose of 3 mg/kg. A solvent control and a CETP inhibitor were dissolved in imwitor 742: tween 80 (1:1) and administered orally for 5 days, and at 4 hours after the final administration, blood was collected from the heart. The collected blood was centrifuged at 3000 rpm for 15 minutes, and the separated serum was measured for HDL-Cholesterol (Biosystem) and LDL-Cholesterol (Biosystem) using a biochemical analysis instrument (ILab 300 plus, Instrumentation Laboratory).
(§1) 3. Statistical Processing
All test results were expressed as Mean±SEM, and to evaluate the effect of each test group, each test group was compared with the control group using one-way ANOVA test (Dunnett's test, p<0.001).

Assay [2] has as its target CETP (Homo sapiens (Human), UniProt P11597). Briefly: Test for inhibition of cholesteryl ester transfer (in vitro). It is filed as biochemical. The settings on record: human plasma as CETP source, LDL from healthy persons as acceptor, rHDL-agarose donor, 37° C.
Text: Test for Inhibition of Cholesteryl Ester Transfer (In Vitro)
1. Construction of Cholesteryl Ester Donor
To construct a cholesteryl ester donor to be used in the test, radiolabeled recombinant HDL containing […] (GE healthcare, TRK886, 3.5 μCi/mg of apoA-1) and apoA-1 was synthesized. Then, rHDL-agarose having the recombinant HDL immobilized thereon by CNBr-activated Sepharose 4B (Amersham Biosciences, Sweden) resin was used in the test.
2. Cholesteryl Ester Transfer Test
As a protein source for cholesteryl ester transfer, plasma from healthy persons was used, and as a cholesteryl ester receptor, LDL from healthy persons was used. Samples were treated with each test compound to final concentrations of 16, 80, 400, 2000 and 10000 nM and analyzed in duplicate. For the cholesteryl ester transfer test, 20 μl of plasma, 50 μl of LDL (0.25 mg/ml) and 50 μl of rHDL-agarose (0.25 mg/ml) were added, and a solution containing a test compound was added, followed by reaction at 37° C. Then, centrifugation was performed at 4° C. for 3 minutes to stop the reaction, and 150 μl of the supernatant was taken and transferred to a 96-well plate for radioactivity measurement, and the radioactivity of the plate was measured with a beta-ray detector.
as §1
The ratio of [^3H]-cholesteryl oleate from HDL to LDL was calculated and used as a result value, and from the result value, IC50 value was calculated using GraphPad Prism 5.0.

Usually pIC50 stands for the negative decadic logarithm of the IC50, by convention in mol/L. High values mean a small IC50, low ones a large IC50.

CETP, sequence (P11597 18-493): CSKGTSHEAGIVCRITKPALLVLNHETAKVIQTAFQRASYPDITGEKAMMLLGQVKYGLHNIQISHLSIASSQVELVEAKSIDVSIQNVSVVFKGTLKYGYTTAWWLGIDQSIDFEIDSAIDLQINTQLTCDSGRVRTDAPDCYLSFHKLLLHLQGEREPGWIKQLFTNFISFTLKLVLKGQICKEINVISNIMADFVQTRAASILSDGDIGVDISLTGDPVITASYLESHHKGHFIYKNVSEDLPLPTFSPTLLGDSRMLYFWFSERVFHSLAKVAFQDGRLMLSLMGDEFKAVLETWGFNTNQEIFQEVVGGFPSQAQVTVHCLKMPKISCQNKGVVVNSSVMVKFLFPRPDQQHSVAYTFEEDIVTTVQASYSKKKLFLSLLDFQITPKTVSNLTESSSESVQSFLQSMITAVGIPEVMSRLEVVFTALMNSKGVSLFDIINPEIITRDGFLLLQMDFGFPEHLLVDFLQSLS

For the compound `C[C@H]1[C@@H](c2cc(C(F)(F)F)cc(C(F)(F)F)c2)OC(=O)N1CC1=C(c2cc(F)cc(-c3ccc(C(=O)O)cc3C(F)(F)F)c2)CCC(C)(C)C1` [Compound 668, 3′-(2-(((4S,5R)-5-(3,5-bis(trifluoromethyl)phenyl)-4-methyl-2-oxooxazolidin-3-yl)methyl)-4,4-dimethylcyclohex-1-enyl)-5′-fluoro-2-(trifluoromethyl)biphenyl-4-carboxylic acid], in assay [1], the inhibition in vivo at 3 mg/kg worked out at 16% and the change in vivo at 3 mg/kg worked out at 44%. Further, in assay [2], the pIC50 is 8.30.

Consider `COc1ccc(-c2ccc(C(=O)O)cc2C(F)(F)F)cc1C1=C(CN2C(=O)O[C@H](c3cc(C(F)(F)F)cc(C(F)(F)F)c3)[C@@H]2C)CC(C)(C)CC1` [Compound 618, 3′-(2-(((4S,5R)-5-(3,5-bis(trifluoromethyl)phenyl)-4-methyl-2-oxooxazolidin-3-yl)methyl)-4,4-dimethylcyclohex-1-enyl)-4′-methoxy-2-(trifluoromethyl)biphenyl-4-carboxylic acid], for which, in assay [1], the inhibition in vivo at 3 mg/kg came to 26% and the change in vivo at 3 mg/kg stood at 65%. In assay [2], this compound gave a pIC50 of 8.80.

For the compound `COc1ncc(-c2ccc(C(=O)O)cc2Cl)cc1C1=C(CN2C(=O)O[C@H](c3cc(C(F)(F)F)cc(C(F)(F)F)c3)[C@@H]2C)CC(C)(C)CC1` [Compound 584, 4-(3-(2-(((4S,5R)-5-(3,5-bis(trifluoromethyl)phenyl)-4-methyl-2-oxooxazolidin-3-yl)methyl)-4,4-dimethylcyclohex-1-enyl)-2-methoxypyridin-5-yl)-3-chlorobenzoic acid], in assay [1], the inhibition in vivo at 3 mg/kg is 40% and the change in vivo at 3 mg/kg amounted to 46%. In assay [2], this compound had a pIC50 of 8.28.

For the compound `COc1ccc(-c2ccc(C(=O)O)cc2C)cc1C1=C(CN2C(=O)O[C@H](c3cc(C(F)(F)F)cc(C(F)(F)F)c3)[C@@H]2C)CC(C)(C)CC1` [Compound 554, 3′-(2-(((4S,5R)-5-(3,5-bis(trifluoromethyl)phenyl)-4-methyl-2-oxooxazolidin-3-yl)methyl)-4,4-dimethylcyclohex-1-enyl)-4′-methoxy-2-methylbiphenyl-4-carboxylic acid], in assay [1], the inhibition in vivo at 3 mg/kg came to 42% and the change in vivo at 3 mg/kg came out at 72%. Further, the pIC50 in assay [2] is 8.24.

For `COc1cc(F)c(-c2ccc(C(=O)O)cc2C)cc1C1=C(CN2C(=O)O[C@H](c3cc(C(F)(F)F)cc(C(F)(F)F)c3)[C@@H]2C)CC(C)(C)CC1` [Compound 574, 5′-(2-(((4S,5R)-5-(3,5-bis(trifluoromethyl)phenyl)-4-methyl-2-oxooxazolidin-3-yl)methyl)-4,4-dimethylcyclohex-1-enyl)-2′-fluoro-4′-methoxy-2-methylbiphenyl-4-carboxylic acid], in assay [1], the inhibition in vivo at 3 mg/kg stood at 36% and the change in vivo at 3 mg/kg was found to be 41%. For the same compound, the pIC50 in assay [2] is 8.41.

Turning to `COc1cc(F)c(-c2ccc(C(=O)O)cc2F)cc1C1=C(CN2C(=O)O[C@H](c3cc(C(F)(F)F)cc(C(F)(F)F)c3)[C@@H]2C)CC(C)(C)CC1` [Compound 661, 5′-(2-(((4S,5R)-5-(3,5-bis(trifluoromethyl)phenyl)-4-methyl-2-oxooxazolidin-3-yl)methyl)-4,4-dimethylcyclohex-1-enyl)-2,2′-difluoro-4′-methoxybiphenyl-4-carboxylic acid], in assay [1], the inhibition in vivo at 3 mg/kg came to 20% and the change in vivo at 3 mg/kg is 53%. This compound showed a pIC50 in assay [2] of 8.60.

For `COc1cc(F)c(-c2ccc(C(=O)O)cc2Cl)cc1C1=C(CN2C(=O)O[C@H](c3cc(C(F)(F)F)cc(C(F)(F)F)c3)[C@@H]2C)CC(C)(C)CC1` [Compound 631, 5′-(2-(((4S,5R)-5-(3,5-bis(trifluoromethyl)phenyl)-4-methyl-2-oxooxazolidin-3-yl)methyl)-4,4-dimethylcyclohex-1-enyl)-2-chloro-2′-fluoro-4′-methoxybiphenyl-4-carboxylic acid], in assay [1], the inhibition in vivo at 3 mg/kg was 30% and the change in vivo at 3 mg/kg is 56%. Moreover, the pIC50 in assay [2] is 8.72.

On to `Cc1cc(C(=O)O)ccc1-c1cc(C2=C(CN3C(=O)O[C@H](c4cc(C(F)(F)F)cc(C(F)(F)F)c4)[C@@H]3C)CC(C)(C)CC2)ccc1F` [Compound 681, 5′-(2-(((4S,5R)-5-(3,5-bis(trifluoromethyl)phenyl)-4-methyl-2-oxooxazolidin-3-yl)methyl)-4,4-dimethylcyclohex-1-enyl)-2′-fluoro-2-methylbiphenyl-4-carboxylic acid], for which, in assay [1], the inhibition in vivo at 3 mg/kg amounted to 29% and the change in vivo at 3 mg/kg came to 25%. Further, the pIC50 in assay [2] is 8.18.

Turning to `COc1ncc(-c2ccc(C(=O)O)cc2F)cc1C1=C(CN2C(=O)O[C@H](c3cc(C(F)(F)F)cc(C(F)(F)F)c3)[C@@H]2C)CC(C)(C)CC1` [Compound 586, 4-(3-(2-(((4S,5R)-5-(3,5-bis(trifluoromethyl)phenyl)-4-methyl-2-oxooxazolidin-3-yl)methyl)-4,4-dimethylcyclohex-1-enyl)-2-methoxypyridin-5-yl)-3-fluorobenzoic acid], in assay [1], the inhibition in vivo at 3 mg/kg turned out to be 34% and the change in vivo at 3 mg/kg is 37%. This compound gave a pIC50 in assay [2] of 7.89.

Regarding `Cc1cc(C(=O)O)ccc1-c1cc(F)cc(C2=C(CN3C(=O)O[C@H](c4cc(C(F)(F)F)cc(C(F)(F)F)c4)[C@@H]3C)CC(C)(C)CC2)c1` [Compound 650, 3′-(2-(((4S,5R)-5-(3,5-bis(trifluoromethyl)phenyl)-4-methyl-2-oxooxazolidin-3-yl)methyl)-4,4-dimethylcyclohex-1-enyl)-5′-fluoro-2-methylbiphenyl-4-carboxylic acid], in assay [1], the inhibition in vivo at 3 mg/kg worked out at 24% and the change in vivo at 3 mg/kg was determined as 50%. The pIC50 in assay [2] is 7.92.

As to `C[C@H]1[C@@H](c2cc(C(F)(F)F)cc(C(F)(F)F)c2)OC(=O)N1CC1=C(c2cc(-c3ccc(C(=O)O)cc3F)cc(C(F)(F)F)c2)CCC(C)(C)C1` [Compound 748, 3′-(2-(((4S,5R)-5-(3,5-bis(trifluoromethyl)phenyl)-4-methyl-2-oxooxazolidin-3-yl)methyl)-4,4-dimethylcyclohex-1-enyl)-2-fluoro-5′-(trifluoromethyl)biphenyl-4-carboxylic acid], in assay [2], the pIC50 was 7.80.

In assay [2], `Cc1cc(C(=O)O)ccc1-c1cccc(C2=C(CN3C(=O)O[C@H](c4cc(C(F)(F)F)cc(C(F)(F)F)c4)[C@@H]3C)CC(C)(C)CC2)c1` [Compound 651, 3′-(2-(((4S,5R)-5-(3,5-bis(trifluoromethyl)phenyl)-4-methyl-2-oxooxazolidin-3-yl)methyl)-4,4-dimethylcyclohex-1-enyl)-2-methylbiphenyl-4-carboxylic acid] showed a pIC50 of 7.97.

`Cc1cc(C(=O)O)ccc1-c1ccc(Cl)c(C2=C(CN3C(=O)O[C@H](c4cc(C(F)(F)F)cc(C(F)(F)F)c4)[C@@H]3C)CC(C)(C)CC2)c1` [Compound 727, 3′-(2-(((4S,5R)-5-(3,5-bis(trifluoromethyl)phenyl)-4-methyl-2-oxooxazolidin-3-yl)methyl)-4,4-dimethylcyclohex-1-enyl)-4′-chloro-2-methylbiphenyl-4-carboxylic acid] had a negative-log IC50 (pIC50) in assay [2] of 7.94.

In turn, `CCNC(=O)c1ccc(-c2ccc(F)c(C3=C(CN4C(=O)O[C@H](c5cc(C(F)(F)F)cc(C(F)(F)F)c5)[C@@H]4C)CC(C)(C)CC3)c2)c(C(F)(F)F)c1` [Compound 756, 3′-(2-(((4S,5R)-5-(3,5-bis(trifluoromethyl)phenyl)-4-methyl-2-oxooxazolidin-3-yl)methyl)-4,4-dimethylcyclohex-1-enyl)-N-ethyl-4′-fluoro-2-(trifluoromethyl)biphenyl-4-carboxamide] gave a pIC50 in assay [2] of 8.23.

Turning to `COC(=O)c1ccc(-c2cc(C3=C(CN4C(=O)O[C@H](c5cc(C(F)(F)F)cc(C(F)(F)F)c5)[C@@H]4C)CC(C)(C)CC3)c(OC)cc2F)c(C)c1` [Compound 572, methyl 5′-(2-(((4S,5R)-5-(3,5-bis(trifluoromethyl)phenyl)-4-methyl-2-oxooxazolidin-3-yl)methyl)-4,4-dimethylcyclohex-1-enyl)-2′-fluoro-4′-methoxy-2-methylbiphenyl-4-carboxylate], the pIC50 in assay [2] was 7.82.
